According to US6887896B1, “7-[(7-Alkoxy)-chrom-3-en-6-yl]-heptatrienoic acid and 7-[(3-alkoxy)-5,6-dihydronaphthalen-2-yl]-heptatrienoic acid derivatives having serum glucose reducing activity” (Allergan, Inc., priority 2003, dated 2005):

Experiments:
RXRβ = target: T1, RXRβ (UniProt P28704); assay: holoreceptor transactivation assay, RXRβ; type: cell-based; settings: for EC50: holoreceptor transactivation, read-out: RXR Trans. EC50 β; for RXR Trans. efficacy (number in parentheses) β: percentage compared to the standard compound
T1 sequence (P28704 1-520): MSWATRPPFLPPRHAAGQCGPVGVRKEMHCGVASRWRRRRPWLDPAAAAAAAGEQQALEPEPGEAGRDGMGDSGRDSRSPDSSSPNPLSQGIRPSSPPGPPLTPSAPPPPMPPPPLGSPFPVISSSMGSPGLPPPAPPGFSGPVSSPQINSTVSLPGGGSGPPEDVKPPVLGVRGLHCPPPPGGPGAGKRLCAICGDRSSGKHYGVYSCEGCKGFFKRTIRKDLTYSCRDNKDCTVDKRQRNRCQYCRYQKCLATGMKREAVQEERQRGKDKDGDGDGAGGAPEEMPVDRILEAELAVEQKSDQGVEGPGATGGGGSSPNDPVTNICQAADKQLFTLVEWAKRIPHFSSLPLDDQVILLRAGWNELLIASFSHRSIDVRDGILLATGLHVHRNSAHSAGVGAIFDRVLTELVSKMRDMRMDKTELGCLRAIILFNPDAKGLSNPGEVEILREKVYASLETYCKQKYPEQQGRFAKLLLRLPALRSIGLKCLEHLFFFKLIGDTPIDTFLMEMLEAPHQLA
Source text: Specifically, one such assay is a chimeric receptor transactivation assay which tests for agonist-like activity in the R RAPE and RAR7 receptor subtypes, and which is based on work published by Feigner, P. L. and Holm, M (1989) Focus, 112 is described in detail in U.S. Pat. No. 5,455,265. The specification of U.S. Pat. No. 5,455,265 is hereby expressly incorporated by reference. A holoreceptor transactivation assay and a ligand binding assay which measure the antagonist/agonist like activity of the compounds of the invention, or their ability to bind to the several retinoid receptor subtypes, respectively, are described in published PCT Application No. WO WO93/11755 (particularly on pages 30-33 and 37-41) published on Jun. 24, 1993, the specification of which is also incorporated herein by reference. A detailed experimental procedure for holoreceptor transactivations has been described by Heyman et al. Cell 68, 397-406, (1992); Allegretto et al. J. Biol. Chem. 268, 26625-26633, and Mangelsdorf et al. The Retinoids: Biology, Chemistry and Medicine, pp 319-349, Raven Press Ltd., New York, which are expressly incorporated herein by reference. The results obtained in this assay are expressed in EC50 numbers, as they are also in the chimeric receptor transactivation assay. The results of the ligand binding assay are expressed in Ki numbers. (See Cheng et al. Biochemical Pharmacology Vol. 22 pp 3099-3108, expressly incorporated herein by reference.)
Efficacy in a transactivation assay is expressed as a percentage of the maximum potency attained by the compound compared to a standard which, in this case, is the compound named (2E,4E,1′S,2′S)-3-methyl-5-[2′-methyl-2′-(5,5,8,8-tetramethyl-5,6,7,8-tetrahydro-naphthalen-2-yl)-cyclopropyl]-penta-2,4-dienoic acid. This standard compound is described in U.S. Pat. No. 6,114,533.
The specification of this application for patent is organized in several sections in accordance with structural Formulas A through F each of which discloses a group of preferred compounds within the scope of the invention. Tables that disclose the activity of certain exemplary compounds of the invention in the above-described RXR receptor transactivation and binding assays are found in the corresponding sections. […] The transactivation data pertaining to the activation of RXR receptors were obtained in the holoreceptor assay.
Generally speaking, in the tables disclosing the results of transactivation and binding assays the numbers in parentheses indicate efficacy as a percentage compared to the standard compound, (2E,4E,1′S,2′S)-3-methyl-5-[2′-methyl-2′-(5,5,8,8-tetramethyl-5,6,7,8-tetrahydro-naphthalen-2-yl)cyclopropyl]-penta-2,4-dienoic acid and the other numbers indicate the measured EC50 and K; in nanomolar concentration.

ob/ob mice = assay: serum glucose, triglycerides and T4 in diabetic mice, oral gavage in corn oil daily for seven days; type: in vivo; settings: 50 mg/kg, corn oil vehicle (Table 7)

| SMILES | EC50 (RXRβ) [nM] | RXR Trans. efficacy (number in parentheses) β (RXRβ) [%] | further results |
| --- | --- | --- | --- |
| CCOc1cc2c(cc1\C(=C/C=C/C(C)=C/C(=O)O)CC)C(C)=CC(C)(C)O2 [Compound 46, 7-(7-Ethoxy-2,2,4-trimethyl-2H-chromen-6-yl)-3-methyl-nona-2E,4E,6Z-trienoic acid] | > 1000 | – | – |
| CCOc1cc2c(cc1\C(=C/C=C/C(C)=C/C(=O)O)CC)C(C(C)(C)C)=CCC2(C)C [Compound A-18, 7-(8-tert-butyl-3-ethyoxy-5,5-dimethyl-5,6-dihydronaphthalen-2-yl)-3-methyl-nona-2E,4E,6Z-trienoic acid] | 11 | 21 | – |
| CCOc1c(\C(C)=C(F)/C=C/C(C)=C/C(=O)O)cc2c(c1Br)C(C)(C)CC=C2C(C)C [Compound A-169, (2E,4E,6E)-7-(4-Bromo-3-ethoxy-8-isopropyl-5,5-dimethyl-5,6-dihydro-naphthalen-2-yl)-6-fluoro-3-methyl-octa-2.4,6-trienoic acid] | 2.2 | 68 | – |
| CCOc1c(\C(CC)=C(F)/C=C/C(C)=C/C(=O)O)cc2c(c1Cl)OC(C)(C)C=C2C(C)C [Compound 173] | 18 | 21 | – |
| CCC1=CC(C)(C)Oc2cc(OC)c(\C(C)=C(F)/C=C/C(C)=C/C(=O)O)cc21 [Compound 120, 7-(4Ethyl-7-methoxy-2,2-dimethyl-2H-chromen-6-yl)-6-fluoro-3-methyl-octa-2E,4E,6E-trienoic acid] | > 10000 | – | – |
| COc1cc2c(cc1\C(C)=C(F)/C=C/C(C)=C/C(=O)O)C(C(C)C)=CC(C)(C)O2 [Compound 121, (2E,4E,6E)-6-Fluoro-7-(4-isopropyl-7-methoxy-2,2-dimethyl-2H-chromen-6-yl)-3-methyl-octa-2,4,6-trienoic acid] | 51 | 72 | – |
| CCOc1c(\C(C)=C(F)/C=C/C(C)=C/C(=O)O)cc2c(c1Cl)C(C)(C)CC=C2C(C)C [Compound A-177, (2E,4E,6E)-7-(4-Chloro-3-ethoxy-8-isopropyl-5,5-dimethyl-5,6-dihydronaphthalen-2-yl)6-fluoro-3-methyl-octa-2,4,6-trienoic acid] | 0.5 | 66 | – |
| CCOc1cc2c(cc1\C(CC)=C(F)/C=C/C(C)=C/C(=O)O)C(C)=CC(C)(C)O2 [Compound 132, 7-(7-Ethoxy-2,2,4-trimethyl-2H-chromen-6-yl)-6-fluoro-3-methyl-nona-2E,4E,6E-trienoic acid] | > 10000 | – | – |
| CCC1=CC(C)(C)Oc2cc(OC)c(\C(C)=C/C=C/C(C)=C/C(=O)O)cc21 [Compound 42, 7-(4-Ethyl-7-methoxy-2,2-dimethyl-2H-chromen-6-yl)-3-methyl-octa-2E,4E,6Z-trienoic acid] | 55 | 98 | – |
| CCOc1cc2c(cc1\C(C)=C(F)/C=C/C(C)=C/C(=O)O)C(C)=CCC2(C)C | 12 | 59 | – |
| CCOc1c(\C(C)=C(F)/C=C/C(C)=C/C(=O)O)cc2c(c1Cl)OC(C)(C)C=C2C(C)C [Compound 172, 7-(8-Chloro-4-isopropyl-7-ethoxy-2,2-dimethyl-2H-chromen-6-yl)-6-fluoro-3-methyl-octa-2E,4E,6E-trienoic acid] | 52 | 45 | – |
| CCOc1cc2c(cc1\C(CC)=C(F)/C=C/C(C)=C/C(=O)O)C(C(C)(C)C)=CCC2(C)C [Compound A-83, (2E,4E,6E)-7-(8-tert-Butyl-3-ethoxy-5,5-dimethyl-5,6-dihydronaphthalen-2-yl)-6-fluoro-3-methyl-nona-2,4,6-trienoic acid] | 7 | 17 | – |
| COc1c(\C(C)=C(F)/C=C/C(C)=C/C(=O)O)cc2c(c1Cl)OC(C)(C)C=C2C(C)C [Compound 170, 7-(8-Chloro-4-isopropyl-7-methoxy-2,2-dimethyl-2H-chromen-6-yl)-6-fluoro-3-methyl-octa-2E,4E,6E-trienoic acid] | 0.8 | 88 | – |
| CC/C(=C/C=C/C(C)=C/C(=O)O)c1cc2c(cc1OC)OC(C)(C)C=C2C(C)C [Compound 44, 7-(4-Isopropyl-7-methoxy-22-dimethyl-2H-chromen-6-yl)-3-methyl-nona-2E,4E,6Z-trienoic acid] | 4.4 | 94 | – |
| COc1cc2c(cc1\C(C)=C(F)/C=C/C(C)=C/C(=O)O)C(C(C)(C)C)=CC(C)(C)O2 [Compound 122, 7-(4-tert-Butyl-7-methoxy-2,2-dimethyl-2H-chromen-6-yl)-6-fluoro-3-methyl-octa-2E,4E,6E-trienoic acid] | 35 | 61 | – |
| CCOc1cc2c(cc1\C(C)=C(F)/C=C/C(C)=C/C(=O)O)C(C(C)(C)C)=CCC2(C)C [Compound A-82, (2E,4E,6E)-6-Fluoro-3-(4,4-dimethyl-6-ethoxy-1-tert-butyl-3,4 dihydronaphthalen-7-yl)-3-methyl-2,4,6-octa-trienoic acid] | 4 | 41 | – |
| CC/C(=C(F)/C=C/C(C)=C/C(=O)O)c1cc2c(cc1OC)OC(C)(C)C=C2C(C)(C)C [Compound 131, 7-(4-tert-Butyl-7-methoxy-2,2-dimethyl-2H-chromen-6-yl)-6-fluoro-3-methyl-nona-2E,4E,6E-trienoic acid] | 64 | 47 | – |
| CCOc1cc2c(cc1\C(=C/C=C/C(C)=C/C(=O)O)CC)C(C)=CCC2(C)C [Compound A-16, 7-(3-Ethoxy-5,5,8-trimethyl-5,6-dihydronaphthalen-2-yl)-3-methyl-nona-2E,4E,6Z-trienoic acid] | 191 | 37 | Glucose Day 3, 3 h (ob/ob mice): 297 mg/dL; Glucose Day 6, 3 h (ob/ob mice): 267 mg/dL; T4 Day 7 (ob/ob mice): 4.2 µg/dL; Triglycerides Day 3, 3 h (ob/ob mice): 121 mg/dL; Glucose Day 0 (ob/ob mice; day 0 (pre-treatment)): 443 mg/dL; Triglycerides Day 0 (ob/ob mice; day 0 (pre-treatment)): 160 mg/dL |
| CCOc1c(\C(=C/C=C/C(C)=C/C(=O)O)CC)cc2c(c1Cl)OC(C)(C)C=C2C(C)C [Compound 51] | 88 | 26 | – |
| COc1c(\C(C)=C/C=C/C(C)=C/C(=O)O)cc2c(c1Cl)OC(C)(C)C=C2C(C)C [Compound 49, 7-(8-Chloro-4-isopropyl-7-methoxy-2,2-dimethyl-2H-chromen-6-y)-3-methyl-octa-2E,4E,6Z-trienoic acid] | 0.9 | 98 | – |
| CCOc1c(\C(C)=C/C=C/C(C)=C/C(=O)O)cc2c(c1Cl)OC(C)(C)C=C2C(C)C [Compound 50, 7-(8-Chloro-4-isopropyl-7-ethoxy-2,2-dimethyl-2H-chromen-6-yl)-3-methyl-octa-2E,4E,6Z-trienoic acid] | 19 | 57 | – |
| CC(/C=C/C(F)=C(/C)c1cc2c(c(Cl)c1OC(C)C)OC(C)(C)C=C2C(C)C)=C\C(=O)O [Compound 174] | 527 | 12 | – |
| CCOc1cc2c(cc1\C(C)=C/C=C/C(C)=C/C(=O)O)C(C(C)(C)C)=CCC2(C)C [Compound A-17, 7-(8-tert-Butyl-3-ethyloxy-5,5-dimethyl-5,6-dihydronaphthalen-2-yl)-3-methyl-octa-2E,4E,6Z-trienoic acid] | 3.2 | 72 | – |
